Experimental data from patent US10030016B2 (Sunesis Pharmaceuticals, Inc., priority 2009, dated 2018).
Counter-ions that a name gives are not always drawn. Like-named read-outs stand apart in the source and are kept apart here.

Key:
[1] = tested on: phospho-akt (Thr308) in PC-3 cells; test: Inhibition of phospho-akt (Thr308) in PC-3 cells, MSD phospho-akt 308 ELISA kit; assay type: cell-based; details: Homo sapiens, 2 hours, no serum, read-out: EC50
In short: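 PC-3 cells (15,000/well, overnight in 10% FBS medium) treated 2 h with three-fold diluted compounds in serum-free medium; DMSO high and 5 μM wortmannin low controls. Lysates captured on BSA-blocked MSD plates overnight at 4 °C, then 1 h antibody detection at RT; phospho-Akt Thr308 read by MSD electrochemiluminescence.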

PDK1 = PDK1 (Homo sapiens (Human), UniProt O15530); test: PDK1 kinase assay (coupled PDK1/AKT/FAM-crosstide assay, IMAP fluorescence polarization); assay type: biochemical
In short: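 Coupled cascade: 0.75 nM PDK1 (51-359) → 10 nM AKT2 (140-467-PIFtide) → 100 nM FAM-crosstide. ATP 40 μM, 25° C, 30 min. IMAP FP (ex 485/em 530), 2 h binding. ΔmP vs conc, 4-param fit.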

[2] = inhibition of P308 Akt in PC-3 cells using MSD
[3] = inhibition of P308 Akt in PC-3 cells, MSD
[4] = inhibition of phospo-PDK1 in vitro

Chain of PDK1 (O15530 51-359): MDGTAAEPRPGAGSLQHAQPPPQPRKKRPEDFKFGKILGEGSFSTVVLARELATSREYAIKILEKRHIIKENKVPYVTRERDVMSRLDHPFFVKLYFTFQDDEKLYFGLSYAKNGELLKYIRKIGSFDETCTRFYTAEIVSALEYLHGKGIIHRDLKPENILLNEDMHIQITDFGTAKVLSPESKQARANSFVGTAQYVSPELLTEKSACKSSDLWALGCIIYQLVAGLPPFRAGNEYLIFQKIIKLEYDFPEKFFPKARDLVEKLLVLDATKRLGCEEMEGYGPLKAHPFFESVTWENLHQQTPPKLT

| SMILES | EC50 [1, 2] [nM] | IC50 (PDK1; inhibition of PDK1 in vitro) [nM] | EC50 [1, 3] [nM] | IC50 (PDK1; [4]) [nM] | other results |
| --- | --- | --- | --- | --- | --- |
| C[C@H](NC(=O)c1cc(C#N)cnc1NCc1ccc(-c2cnc(N)cn2)cc1F)c1ccc(F)cc1 [Example 130, (S)-2-(4-(5-aminopyrazin-2-yl)-2-fluorobenzylamino)-5-cyano-N-(1-(4-fluorophenyl)ethyl) nicotinamide] | 1000 to 10000 | < 100 |  |  |  |
| Nc1ncnc2ccc(-c3ccc(CNc4ncc(NC(=O)Cc5ccccc5)cc4C(=O)NCc4ccc(F)c(F)c4)s3)cc12 [Example 8.5.4, 2-({[5-(4-aminoquinazolin-6-yl)thiophen-2-yl]methyl}amino)-N-(3,4-difluorobenzyl)-5-[(phenylacetyl)amino] pyridine-3-carboxamide] |  |  | 1000 to 10000 | 1000 to 5000 |  |
| C[C@H](NC(=O)c1nc(C#N)cnc1NCC1CCC(c2cnc3[nH]nc(N)c3c2)CC1)c1ccc(F)c(F)c1 (stereo partly drawn) [Example 60, (S)-3-((4-(3-amino-1H-pyrazolo[3,4-b]pyridin-5-yl)cyclohexyl)methylamino)-6-cyano-N-(1-(3,4-difluorophenyl)ethyl)pyrazine-2-carboxamide] | < 1000 | < 100 |  |  |  |
| C[C@H](NC(=O)c1cc(C#N)cnc1NCc1ccc(-c2ccc3ncnc(N)c3c2)s1)c1ccc(F)c(F)c1 [Example 8.8.2] |  |  | < 1000 | < 100 |  |
| Nc1n[nH]c2ncc(-c3ccc(CNc4ncc(C(F)(F)F)cc4C(=O)Nc4ccc(C(F)(F)F)cc4)cc3)cc12 [Example 296] | < 1000 | < 100 |  |  |  |
| Nc1n[nH]c2ncc(-c3ccc(CNc4ncc(C(F)(F)F)cc4C(=O)Nc4ccncc4)cc3)cc12 [Example 288, 2-(4-(3-amino-1H-pyrazolo [3,4-b]pyridin-5-yl)benzylamino)-N-(pyridin-4-yl)-5-(trifluoromethyl) nicotinamide] | 1000 to 10000 | < 100 |  |  |  |
| CNC(=O)c1cc(S(=O)(=O)NCCCN(C)C)cnc1NCc1ccc(-c2ccc3ncnc(N)c3c2)s1 [Example 341] | > 10000 | > 5000 |  |  |  |
| Nc1ccc(-c2ccc(CNc3ncc(C(F)(F)F)cc3C(=O)NCc3ccc(F)c(F)c3)cc2)cn1 [Example 370, 2-(4-(6-aminopyridin-3-yl)benzylamino)-N-(3,4-difluorobenzyl)-5-(trifluoro-methyl)nicotinamide] | 1000 to 10000 | < 100 |  |  |  |
| N#Cc1cnc(NCc2ccc(-c3ccc4ncnc(N)c4c3)s2)c(C(=O)NCc2ccc(F)c(F)c2)c1 [Ex. 8.8.1, 2-(((5-(4-aminoquinazolin-6-yl)thiophen-2-yl)methyl)amino)-5-cyano-N-(3,4-difluorobenzyl)nicotinamide] |  |  | < 1000 | < 100 |  |
| Nc1ncnn2c(-c3ccc(CNc4ncc(C(F)(F)F)cc4C(=O)Nc4ccc(F)cc4)cc3)ccc12 [Example 180, 2-[4-(4-Amino-pyrrolo [2,1-f][1,2,4]triazin-7-yl)-benzylamino]-N-(4-fluoro-phenyl)-5-trifluoromethyl-nicotinamide] | 1000 to 10000 | < 100 |  |  |  |
| CCCn1cc(-c2ccc(CNc3ncc(C(F)(F)F)cc3C(=O)Nc3ccc(F)cc3)cc2)c2c(N)ncnc21 [Example 429, 2-(4-(4-amino-7-propyl-7H-pyrrolo[2,3-d]pyrimidin-5-yl)benzylamino)-N-(4-fluorophenyl)-5-(trifluoromethyl)nicotinamide] | 1000 to 10000 | < 100 |  |  |  |
| C[C@H](NC(=O)c1cc(C#N)cnc1NCc1ccc(-c2nn(C)c3ncnc(N)c23)cc1)c1ccc(F)cc1 [Example 98, (S)-2-(4-(4-amino-1-methyl-1H-pyrazolo[3,4-d]pyrimidin-3-yl)benzylamino)-5-cyano-N-(1-(4-fluorophenyl)ethyl)nicotinamide] | 1000 to 10000 | < 100 |  |  |  |
| C[C@H](NC(=O)c1nc(C#N)cnc1NCc1ccc(-c2cnc(N)c(O[C@H]3CCNC3)n2)cc1)c1ccc(F)c(F)c1 [Example 164, 3-{4-[5-Amino-6-((S)-pyrrolidin-3-yloxy)-pyrazin-2-yl]-benzylamino}-6-cyano-pyrazine-2-carboxylic acid [(S)-1-(3,4-difluoro-phenyl)-ethyl]-amide] | < 1000 | < 100 |  |  |  |
| C[C@H](NC(=O)c1cccnc1Nc1ccc(-c2ccc3ncnc(N)c3c2)s1)c1ccc(F)c(F)c1 [Example 51, (S)-2-(5-(4-aminoquinazolin-6-yl)thiophen-2-ylamino)-N-(1-(3,4-difluorophenyl)ethyl)nicotinamide] | > 10000 | > 5000 |  |  |  |
| C[C@H](NC(=O)c1cccnc1NCc1ccc(-c2cn(C3CCC3)c3ncnc(N)c23)s1)c1ccc(F)cc1 [Example 345] |  | 100 to 1000 |  |  | EC50 ([1]; PC-3, 2 h, inhibition of P308 Akt in PC-3 cells using MSD): < 1000 nM |
| N#Cc1cnc(NCc2ccc(-c3cnc(N)cn3)cc2)c(C(=O)NCc2ccc(F)c(F)c2)c1 [Example 377, 2-(4-(5-aminopyrazin-2-yl)benzylamino)-5-cyano-N-(3,4-difluorobenzyl) nicotinamide] | 1000 to 10000 | < 100 |  |  |  |
| N#Cc1cnc(NCc2ccc(-c3cnc4[nH]c(=O)[nH]c4c3)cc2)c(C(=O)NCc2ccc(F)c(F)c2)n1 [Example 364, 6-cyano-N-(3,4-difluorobenzyl)-3-(4-(2-oxo-2,3-dihydro-1H-imidazo[4,5-b]pyridin-6-yl)benzylamino)pyrazine-2-carboxamide] | < 1000 | < 100 |  |  |  |
| Nc1ncnc2c1c(-c1ccc(CNc3ncc(C(F)(F)F)cc3C(=O)Nc3ccc(F)cc3)cc1)cn2CCO [Example 324, 2-(4-(4-amino-7-(2-hydroxyethyl)-7H-pyrrolo [2,3-d]pyrimidin-5-yl)benzylamino)-N-(4-fluorophenyl)-5-(trifluoromethyl)nicotinamide] | < 1000 | < 100 |  |  |  |
| Nc1n[nH]c2ncc(-c3ccc(CNc4ncc(C(F)(F)F)cc4C(=O)NCc4ccc(Cl)c(F)c4)cc3)cc12 [Example 419, 2-(4-(3-amino-1H-pyrazolo [3,4-b]pyridin-5-yl)benzylamino)-N-(4-chloro-3-fluorobenzyl)-5-(trifluoromethyl)nicotinamide] | 1000 to 10000 | < 100 |  |  |  |
| C[C@H](NC(=O)c1nc(C#N)cnc1NCc1ccc(-c2cn(C)c3ncnc(N)c23)cc1)c1ccc(F)c(F)c1 [Example 27, (S)-3-(4-(4-amino-7-methyl-7H-pyrrolo[2,3-d]pyrimidin-5-yl)benzylamino)-6-cyano-N-(1-(3,4-difluorophenyl)ethyl)pyrazine-2-carboxamide] |  |  | < 1000 | < 100 |  |
| C[C@H](NC(=O)c1cc(C#N)cnc1NCc1ccc(-c2cnc(N)c(C(=O)NCCCS(C)(=O)=O)n2)cc1)c1ccc(F)cc1 [Example 208] | < 1000 | < 100 |  |  |  |

Now from value to compound, other results behind:

| EC50 [1, 2] [nM] | IC50 (PDK1; inhibition of PDK1 in vitro) [nM] | EC50 [1, 3] [nM] | IC50 (PDK1; [4]) [nM] | SMILES | other results |
| --- | --- | --- | --- | --- | --- |
|  |  | > 10000 | > 5000 | C[C@@H](NC(=O)c1cccnc1NCc1ccc(-c2ccc3ncnc(N)c3c2)s1)c1cccc(F)c1 [Example 3.20, 2-({[5-(4-aminoquinazolin-6-yl)thiophen-2-yl]methyl}amino)-N-[(1R)-1-(3-fluorophenyl)ethyl] pyridine-3-carboxamide (TFA salt)] |  |
|  |  |  | 1000 to 5000 | CC(C)Oc1cc(CNc2ncccc2C(=O)NCc2ccc(F)c(F)c2)cc(-c2ccc3ncccc3c2)c1 [Example 5.4, N-(3,4-difluorobenzyl)-2-(3-isopropoxy-5-(quinolin-6-yl)benzylamino) nicotinamide] | EC50 ([1]; PC-3, 2 h, inhibition of P308 Akt in PC-3 cells, MSD): > 10000 nM |
|  |  | < 1000 | < 100 | C[C@H](NC(=O)c1cccnc1NCCOc1ccc2c(c1)NC(=O)/C2=C\c1cnc[nH]1)c1ccc(F)c(F)c1 [Example 19.2, (S,Z)-2-(2-(3-((1H-imidazol-5-yl)methylene)-2-oxoindolin-6-yloxy)ethylamino)-N-(1-(3,4-difluorophenyl)ethyl)nicotinamide] |  |
|  |  | > 10000 | > 5000 | Nc1ncnc2ccc(-c3ccc(CNc4ncccc4C(=O)Nc4cccc5cccnc45)s3)cc12 [Example 3.32, 2-({[5-(4-aminoquinazolin-6-yl)thiophen-2-yl]methyl}amino)-N-(quinolin-8-yl)pyridine-3-carboxamide (TFA salt)] |  |
|  |  | 1000 to 10000 | 100 to 1000 | CC(C)[C@H](NC(=O)c1cccnc1NCc1ccc(-c2ccc3ncnc(N)c3c2)s1)c1cccc(F)c1 [Example 3.44, (S)-2-((5-(4-aminoquinazolin-6-yl)thiophen-2-yl)methylamino)-N-(1-(3-fluorophenyl)-2-methylpropyl)nicotinamide (TFA salt)] |  |
|  |  | > 10000 | < 100 | Cn1nc(Nc2ncccc2C(=O)NCc2ccc(F)c(F)c2)c2cc(-c3ccc4ncnc(N)c4c3)ccc21 [Example 14.2, 2-(5-(4-aminoquinazolin-6-yl)-1-methyl-1H-indazol-3-ylamino)-N-(3,4-difluorobenzyl)-nicotinamide] |  |
|  |  | < 1000 | < 100 | Cn1cnc2cnc3ccc(-c4ccc(CNc5ncc(C#N)nc5C(=O)NCc5ccc(F)cc5)s4)cc3c21 [Example 3.82, 6-cyano-N-(4-fluorobenzyl)-3-(((5-(1-methyl-1H-imidazo [4,5-c]quinolin-8-yl)thiophen-2-yl)methyl)amino)pyrazine-2-carboxamide (TFA salt)] |  |
|  |  | 1000 to 10000 | 100 to 1000 | C[C@H](NC(=O)c1cccnc1N[C@@H](COc1ccc2[nH]c(=O)[nH]c2c1)c1ccccc1)c1ccc(F)c(F)c1 [Example 16.3] |  |
